The text below walks through data of US12440531B2, “Composition for use in improving endothelial function by enhancing flow mediated dilation” (SOCIETE DES PRODUITS NESTLE S.A., priority 2019, dated 2025).

One assay relates to L. johnsonii esterase. Description: Substrate specificity with 4-nitrophenyl derivatives. In kind it is biochemical, Lactobacillus johnsonii. As to conditions: substrate 0.2 mM, sodium phosphate buffer pH 6.0, 37° C., 10 min, absorbance 410 nm. How it is done: The substrate specificity of L. johnsonii esterase was studied using different 4-nitrophenyl derivatives. […] The reactions were carried out in sodium phosphate buffer pH 6.0 at 37° C. for 10 min. The substrates were used at concentration of 0.2 mM and enzyme at 0.01 U/mg substrate. The measures were monitored each 30 seconds. The absorbance was set at 410 nm.

A further assay relates to human vascular function. As to conditions: pure 5-CQA at 450 mg and 900 mg, 24 subjects; cited from earlier work.

On to `CCCC(=O)Oc1ccc([N+](=O)[O-])cc1` [4-nitrophenyl butyrate], for which, in the assay with L. johnsonii esterase, the “transformation as substrate of L. johnsonii esterase” value is recorded as “best substrate”.
Same read-out and setting: with `CCCCCCCCCCCC(=O)Oc1ccc([N+](=O)[O-])cc1` [4-nitrophenyl dodecanoate] the entry was “no transformation”.
Take `O=C(/C=C/c1ccc(O)c(O)c1)O[C@@H]1C[C@](O)(C(=O)O)C[C@@H](O)[C@H]1O` [Dose 5-CQA, 5-CQA]: the “effect on human vascular function” value in the assay with human vascular function is reported as “did not show a significant effect”.
